Test results from patent US5844000A, “Propenone oxime ethers and pharmaceutical compositions containing them” (Sanofi, priority 1997, dated 1998).
Entries after “also recorded” stand apart in the source; their conditions may differ. Values belong to the compound of their own block, whether it stands above or below them.

Columns and labels:
[1] = Biotransformation: excreted radioactivity (urine and feces) as SR 46349 and metabolites in humans; format: in vivo, human; conditions: for percentage of excreted radioactivity: urine and feces, excreted (recovered) radioactivity
Procedure: Excretion-balance, plasma and blood pharmacokinetics of radioactivity, and clinical safety/tolerance were reported.
The capsule was dropped directly in the mouth and swallowed with 150 mL of tap water at about 8:00 AM. Ingestion of the capsule was verified by inspection of the oral cavity of each subject.
A representative pool of urine was prepared for each subject by mixing aliquots from each collection interval in proportion to the percent of radioactivity present in each collection interval.
A representative pool of fecal homogenate was prepared for each subject by mixing aliquots from each collection interval in proportion to the percent of radioactivity present in each collection interval.
(§1) Metabolite quantitation was conducted with an HP1090 HPLC system (Hewlett Packard, Wilmington, Del. HPLC eluant was fraction collected (0.33 mL/fraction using a FOXY™ Model 200 fraction collector; Isco, Lincoln, Nebr.). Fractions were mixed with 5 mL of Biofluor cocktail and then counted using a Tri-Carb 2700TR liquid scintillation counter (Packard, Meriden, Conn.).
Sample extraction and HPLC column recoveries were calculated using measured radioactivity in samples, sample extracts and HPLC eluants. Recoveries of 100% were based on the expected amount of radioactivity in a sample prior to extraction or HPLC analysis.
Urinary and fecal metabolites are expressed as a percentage of the radioactivity in each matrix and as a percentage of excreted (recovered) radioactivity. Values were corrected for total experimental recoveries.

[2] = tested on: 5-HT2; conditions: result in words; U.S. Pat. No. 5,166,416; cited from earlier work
[3] = Plasma metabolite profiling in humans; format: in vivo, human; conditions: result in words; time points up to 48 hr
Procedure: (§2) The objective of this study was to quantitate the biotransformation of ^14 C-SR 46349B in humans. Six healthy male volunteers were treated orally with a single 30 mg dose of ^14 C-SR 46349B (corresponding to 35.4 mg of the salified compound), labeled on the C-1 position of the propenyl chain with ^14 C (1.375 MBq). Excretion-balance, plasma and blood pharmacokinetics of radioactivity, and clinical safety/tolerance were reported. Plasma, urine and fecal homogenates were analyzed for quantitation and identification of SR 46349B and metabolites.
Subjects were fasted overnight prior to the morning of ^14 C-SR 46349B administration. […]
Pools of plasma for each collection time were prepared by mixing equal amounts of plasma from all subjects. This made available enough plasma at each time point to quantitate metabolites. […] Due to low amounts of radioactivity in plasma, five concentrated extracts from the same time point were combined. […] Pools for each collection time were analyzed in triplicate.
as §1, with “Conn.). […]” for “Conn.).”

[4] = Human pharmacokinetics: plasma concentration of SR 46349 (HPLC-UV) after single oral dose of 14C-SR 46349B; format: in vivo
Procedure: as §2
(§3) Subjects were fasted overnight prior to the morning of ^14 C-SR 46349B administration. All subjects received a single oral 30 mg dose of ^14 C-SR 46349B (corresponding to 35.4 mg of the […] compound) in a single gelatin capsule. The capsule was dropped directly in the mouth and swallowed with 150 mL of tap water at about 8:00 AM. Ingestion of the capsule was verified by inspection of the oral cavity of each subject.
(§4) Blood samples were obtained at 0, 0.5, 1, 1.5, 2, 2.5, 3, 4, 6, 8, 10, 12, 16, 24, 36, 48, 72, 96, 120, 144, 168, 192, 216, 240, 264, 288 and 312 hr after dosing. For each sample, approximately 7 mL of blood (22 mL at 2, 3, 4, 8, 12, 24 and 48 hrs after dosing) was drawn into polypropylene collection tubes containing lithium heparin (as an anticoagulant). Following the removal of 1 mL of blood for radiocarbon analysis, samples were centrifuged (within 30 min) at 2000-3000×g for 10 min and the plasma transferred into polypropylene transport tubes. All samples were stored frozen (≤-18° C.) until analysis.
The concentration of SR 46349 in plasma samples was determined using a validated HPLC method with UV detection at 320 nm. […] The samples were dried at room temperature and resuspended in 0.15 mL of mobile phase and 0.05 mL was analyzed. […]
Unknown concentrations of SR 46349 were quantified by reference to a 1/y^2 weighted regression analysis of the peak-area ratio (SR 46349/internal standard) versus concentration of the calibration curve standards. […]
Model-independent pharmacokinetic parameters for plasma concentrations of SR 46349 were calculated for each subject. The maximum observed plasma concentration (Cmax) of SR 46349 and its corresponding time (tmax) were determined by visual inspection of individual concentration-time profiles. Half-life (t 1/2) was calculated from the ratio of ln(2)/λZ, where λZ is the regressed slope of the terminal phase. The area under the plasma concentration of SR 46349-versus-time-curves (AUC(0-t)) was calculated using the trapezoidal rule. AUC was calculated for the sum of AUC(0-t) and Cp(1)/λZ wherein Cp(1) is the last measurable concentration time point. […]

[5] = Fecal excretion and fecal metabolite profiling in humans; format: in vivo, human; conditions: up to 276 hr post-dose, % of administered dose
Procedure: as §2
(§5) Subjects were fasted overnight prior to the morning of ^14 C-SR 46349B administration. All subjects received a single oral 30 mg dose of ^14 C-SR 46349B (corresponding to 35.4 mg of the unsalified compound) in a single gelatin capsule. […]
(§6) Aliquots of plasma and urine samples were added directly to Ready-Safe scintillant (9 mL), hand shaken for a few seconds and left for at least 2 hours prior to counting. […] Radioactivity assays were performed with a Packard Instruments Tri-Carb, Model 1600TR Liquid Scintillation System. […]
A representative pool of fecal homogenate was prepared for each subject by mixing aliquots from each collection interval in proportion to the percent of radioactivity present in each collection interval. Pools were prepared to represent approximately 95% of total collected fecal radioactivity. […]

[6] = Urinary excretion and urinary metabolite profiling in humans; format: in vivo, human; conditions: up to 336 hr post-dose, % of administered dose
Procedure: as §2, §5, §6
A representative pool of urine was prepared for each subject by mixing aliquots from each collection interval in proportion to the percent of radioactivity present in each collection interval. Pools were prepared to represent approximately 95% of total collected urinary radioactivity. […]

[7] = Human pharmacokinetics: plasma radioactivity after single oral dose of 14C-SR 46349B; format: in vivo
Procedure: as §2, §3, §4
Aliquots of plasma and urine samples were added directly to Ready-Safe scintillant (9 mL), hand shaken for a few seconds and left for at least 2 hours prior to counting. Aliquots of fecal homogenates were weighed in a Combusto-Cone fitted with a CombustoPad. The samples were allowed to dry overnight before combustion in a Packard Sample Oxidizer, Model 307 (Meriden, Conn.). Carbo-Sorb and Permafluor E^+ were used as scintillants (10 mL). Samples mixed with scintillant were left for at least 4 hours prior to counting. Radioactivity assays were performed with a Packard Instruments Tri-Carb, Model 1600TR Liquid Scintillation System. The LOQ was set at 12 cpm above background.

percentage of excreted radioactivity [1]: approximately 23%
Structure (SMILES): C[N+](C)([O-])CCON=C(/C=C/c1ccc(O)cc1)c1ccccc1F [H22 & H23]

Structure (SMILES): CN(C)CCON=C(/C=C/c1ccc(O)cc1)c1ccccc1F [SR 46349B, Trans 1-N,N-dimethylaminoethoxyimino 1-(2-fluorophenyl)-3-(4-hydroxyphenyl)2-propene hemifumarate]
5-HT2 antagonist activity [2]: potent 5-HT2 antagonist | plasma concentration compared with any single metabolite [3]: higher than any single metabolite, except at the 48 hr time point

Structure (SMILES): CN(C)CCON=C(/C=C/c1ccc(O)cc1)c1ccccc1F [SR 46349]
half-life ([4]; human, po, 30 mg, single oral 30 mg, mean (±SD), read-out: terminal elimination half-life of SR 46349 (converted)): ~1380 min | Cmax ([4]; human, single oral 30 mg 14C-SR 46349B, healthy male volunteers, capsule, fasted, read-out: Cmax of SR 46349 in plasma, mean (±SD)): 50 ng/mL | AUC ([4]; human, single oral 30 mg, read-out: mean plasma AUC for SR 46349 (±SD), as restated in the discussion): 1200 ng·h/mL | terminal elimination half-life of SR 46349 ([4]; single oral 30 mg, mean (±SD)): 22.9 (±7.3) hr | plasma concentration compared with any single metabolite [3]: always higher than any individual metabolite | extent and pathways of metabolism ([1]; result in words, human): extensively metabolized; also recorded: N-oxidation, N-demethylation, sulfation and glucuronidation; also recorded: oxidation of SR 46349 (N-oxidation and N-demethylation) appears to be the major mechanism of metabolic clearance | percentage of excreted radioactivity [1]: approximately 6%

cumulative fecal excretion of radioactivity, mean (±SD) [5]: 21.6 (±3.5) % | cumulative fecal excretion of radioactivity, range ([5]; range over subjects): 16.4 to 26.5% | cumulative urinary excretion of radioactivity, mean (±SD) [6]: 70.3 (±4.6) % | cumulative urinary excretion of radioactivity, range ([6]; range over subjects): 63.1 to 77.1% | maximal plasma concentrations of radioactivity relative to plasma concentrations of SR 46349 ([7]; at similar tmax values, radioactivity / SR 46349): approximately 3 times | AUC of plasma radioactivity relative to mean plasma AUC for SR 46349 ([7]; radioactivity / SR 46349): approximately 11 times | Cmax of plasma radioactivity, mean (±SD) ([7]; single oral 30 mg 14C-SR 46349B, total radioactivity): 0.16 (±0.02) mg eq/L | AUC of plasma radioactivity, mean (±SD) ([7]; single oral 30 mg, total radioactivity): 13.7 (±2. 1) mg eq.circle-solid.hr/L
Structure (SMILES): CN(C)CCO/N=[14C](/C=C/c1ccc(O)cc1)c1ccccc1F [^14 C-SR 46349B]
